Data as given in the NIST ThermoML archive (doi:10.1021/je700152c).

How the values were obtained:
[1] = Molar enthalpy of transition or fusion; conditions: Adiabatic calorimetry
[2] = molar heat capacity at constant pressure; conditions: 101.33 kPa

CCCCn1cc[n+](C)c1.Cc1ccc(S(=O)(=O)[O-])cc1 [1-butyl-3-methylimidazolium tosylate]
[1]
Conditions | Molar enthalpy of transition or fusion [kcal/mol]
Crystal 1 | 5.16
Crystal 2 | 0.0464
Metastable crystal | 4.76

[2]
Conditions | molar heat capacity at constant pressure [J/K/mol]
5 K, Crystal 2 | 2.54
10 K, Crystal 2 | 11.91
15 K, Crystal 2 | 24.31
20 K, Crystal 2 | 37.67
25 K, Crystal 2 | 51.27
30 K, Crystal 2 | 64.46
35 K, Crystal 2 | 76.73
40 K, Crystal 2 | 87.97
45 K, Crystal 2 | 98.44
50 K, Crystal 2 | 108.3
60 K, Crystal 2 | 125.9
70 K, Crystal 2 | 141.6
80 K, Crystal 2 | 156
90 K, Crystal 2 | 169.3
100 K, Crystal 2 | 181.9
105 K, Crystal 2 | 188.1
110 K, Crystal 2 | 194.1
120 K, Crystal 2 | 206
130 K, Crystal 2 | 218
140 K, Crystal 2 | 230
150 K, Crystal 2 | 241.9
152.77 K, Crystal 1 | 238.4
152.77 K, Crystal 2 | 245.2
160 K, Crystal 1 | 246.2
170 K, Crystal 1 | 257
180 K, Crystal 1 | 267.8
190 K, Crystal 1 | 278.8
200 K, Crystal 1 | 289.9
210 K, Crystal 1 | 301.5
220 K, Crystal 1 | 313.3
230 K, Crystal 1 | 335.4
240 K, Crystal 1 | 348.3
250 K, Crystal 1 | 359.9
260 K, Crystal 1 | 371.2
270 K, Crystal 1 | 382.3
280 K, Crystal 1 | 393.3
290 K, Crystal 1 | 404.1
298.15 K, Crystal 1 | 412.7
300 K, Crystal 1 | 414.6
310 K, Crystal 1 | 425
320 K, Crystal 1 | 435.3
330 K, Crystal 1 | 445.3
340 K, Crystal 1 | 455.1
343.89 K, Crystal 1 | 458.7
343.89 K, Liquid | 543.4
350 K, Liquid | 548.4
360 K, Liquid | 556
370 K, Liquid | 563.1
380 K, Liquid | 569.8
